The values below are quoted from earlier work in US11154507B2, “Freeze-dried aripiprazole formulation” (OTSUKA PHARMACEUTICAL CO., LTD., priority 2011, dated 2021).

Each structure is given as a SMILES string.

The conditions of the series: room temperature.

Regarding `O=C1CCc2ccc(OCCCCN3CCN(c4cccc(Cl)c4Cl)CC3)cc2N1` [Aripiprazole], the solubility in water was < 1 µg/mL.
